Data reported in US20250313563A1, “GLYCOGEN SYNTHASE KINASE 3 INHIBITORS AND USES THEREOF” (The Broad Institute, Inc., priority 2022, published 2025).
Read-outs that look alike come from different tables or passages of the source.

How the values were obtained:
[1] = target: GSK3α (GST-full length GSK3α) (Homo sapiens (Human), UniProt P49840); test: GSK3α TR-FRET kinase assay; type: biochemical
In short: (§1)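 Readout: anti-pSer641 Tb antibody/streptavidin-d2 signal after 60 min, expressed as 665/615 ratio and fitted versus log concentration for IC50. Enzyme: 1 nM GST-GSK3 (α or β), compound-preincubated 30 min. Conditions: pH 7.5 Tris buffer with MgCl2, DTT, BSA; ATP at 4 or 2 μM, or 1 mM; 100 min.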

[2] = target: GSK3b (GST-full length GSK3b) (Homo sapiens (Human), UniProt P49841); test: GSK3b TR-FRET kinase assay; type: biochemical
In short: as §1

[3] = 1 nM GSK3α, 4 μM ATP, 30 minute preincubation, read-out: GSK3-A TR-FRET BIOCHEMICAL (TR-FRET), IC50
[4] = 1 nM GSK3b, 2 μM ATP, 30 minute preincubation, read-out: GSK3-B TR-FRET BIOCHEMICAL (TR-FRET), IC50
[5] = 1 nM GSK3α, 4 μM ATP, 30 minute preincubation, Table 16, read-out: GSK3-A TR-FRET BIOCHEMICAL (TR-FRET)
[6] = 1 nM GSK3b, 2 μM ATP, 30 minute preincubation, Table 16, read-out: GSK3-B TR-FRET BIOCHEMICAL (TR-FRET)
[7] = read-out: GSK3-A (TR-FRET 1 mM ATP), GMean, IC50, 1 mM ATP, geometric mean
[8] = read-out: GSK3-B (TR-FRET 1 mM ATP), GMean, IC50, 1 mM ATP, geometric mean
[9] = GSK3-A (TR-FRET 1 mM ATP), GMean, IC50, 1 mM ATP, geometric mean
[10] = GSK3-B (TR-FRET 1 mM ATP), GMean, IC50, 1 mM ATP, geometric mean

Sequence of GSK3b (GST-full length GSK3b) (P49841 whole entry): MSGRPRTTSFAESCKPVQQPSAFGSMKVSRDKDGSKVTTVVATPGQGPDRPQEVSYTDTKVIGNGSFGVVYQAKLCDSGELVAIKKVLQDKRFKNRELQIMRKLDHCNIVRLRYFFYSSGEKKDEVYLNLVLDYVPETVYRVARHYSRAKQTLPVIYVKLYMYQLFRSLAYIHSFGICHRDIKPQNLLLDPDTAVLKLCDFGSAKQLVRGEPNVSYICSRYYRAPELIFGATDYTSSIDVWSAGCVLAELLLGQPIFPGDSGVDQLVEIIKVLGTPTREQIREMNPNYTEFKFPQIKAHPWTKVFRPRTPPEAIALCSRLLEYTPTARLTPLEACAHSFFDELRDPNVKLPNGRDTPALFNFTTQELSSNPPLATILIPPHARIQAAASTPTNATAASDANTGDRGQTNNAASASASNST
Sequence of GSK3α (GST-full length GSK3α) (P49840 whole entry): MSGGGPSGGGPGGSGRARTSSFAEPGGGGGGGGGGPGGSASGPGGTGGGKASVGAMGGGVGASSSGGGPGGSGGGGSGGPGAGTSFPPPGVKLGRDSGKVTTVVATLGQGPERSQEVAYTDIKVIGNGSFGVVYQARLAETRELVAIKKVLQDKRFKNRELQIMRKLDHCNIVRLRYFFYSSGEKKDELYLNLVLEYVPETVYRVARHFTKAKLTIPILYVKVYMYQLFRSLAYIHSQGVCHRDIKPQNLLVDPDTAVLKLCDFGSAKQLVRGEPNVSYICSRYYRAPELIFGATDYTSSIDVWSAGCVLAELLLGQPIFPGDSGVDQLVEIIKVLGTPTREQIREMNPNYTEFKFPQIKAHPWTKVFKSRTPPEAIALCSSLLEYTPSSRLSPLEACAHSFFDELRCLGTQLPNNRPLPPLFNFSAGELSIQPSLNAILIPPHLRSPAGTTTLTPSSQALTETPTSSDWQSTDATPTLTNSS

Row | IC50 [1, 5] [nM] | IC50 [2, 6] [nM] | Structure (SMILES) | also measured
1 |  |  | CCC1(c2cccc(-c3cnn4c3CCCC4)c2)C2=C(CC(C)(C)NC2=O)Nc2n[nH]cc21 (centres unmarked) [Compound 945603] | IC50 [1, 3]: ≤ 100 nM; IC50 [2, 4]: 100 to 1000 nM
2 |  |  | CC[C@]1(c2cccc(S(C)(=O)=O)c2)C2=C(CC(C)(C)NC2=O)Nc2n[nH]cc21 [Compound 945604] | IC50 [1, 3]: ≤ 100 nM; IC50 [2, 4]: ≤ 100 nM
3 | ≤ 100 | ≤ 100 | CC[C@]1(c2cccc(-c3cncn3C)c2)C2=C(CC(C)(C)CC2=O)Nc2n[nH]cc21 [Compound 945605] | 
4 | ≤ 100 | 100 to 1000 | CCC1(c2cccc(-c3ccnc4c3CCC4)c2)C2=C(CC(C)(C)CC2=O)Nc2n[nH]cc21 (centres unmarked) [Compound 945606] | IC50 [1, 7]: 100 to 1000 nM; IC50 [2, 8]: 1000 to 5000 nM
5 | ≤ 100 | 100 to 1000 | CC[C@]1(c2cccc(-c3cnc4n3CCCC4)c2)C2=C(CC(C)(C)CC2=O)Nc2n[nH]cc21 [Compound 945607] | IC50 [1, 7]: 1000 to 5000 nM; IC50 [2, 8]: > 5000 nM
6 |  |  | CC[C@]1(c2cccc(-c3cnn(C)c3C)c2)C2=C(CC(C)(C)NC2=O)Nc2n[nH]cc21 [Compound 945608] | IC50 [1, 3]: ≤ 100 nM; IC50 [2, 4]: 100 to 1000 nM
7 | ≤ 100 | 100 to 1000 | CC[C@]1(c2cccc(N(C)c3cc(C)cc(C)n3)c2)C2=C(CC(C)(C)CC2=O)Nc2n[nH]cc21 [Compound 945610] | 
8 |  |  | CC[C@]1(c2cccc(-c3cnn(C)c3)c2)C2=C(CC(C)(C)NC2=O)Nc2n[nH]c(C)c21 [Compound 945611] | IC50 [1, 3]: > 5000 nM; IC50 [2, 4]: > 5000 nM
9 | 1000 to 5000 | > 5000 | CC[C@]1(c2cccc(-c3cnc(C)n3C)c2)C2=C(CC(C)(C)CC2=O)Nc2n[nH]cc21 [Compound 945612] | 
10 | ≤ 100 | ≤ 100 | CC[C@@]1(c2cccc(-c3cnc(C)n3C)c2)C2=C(CC(C)(C)CC2=O)Nc2n[nH]cc21 [Compound 945613] | IC50 [1, 7]: 100 to 1000 nM; IC50 [2, 8]: 1000 to 5000 nM
11 |  |  | CCC1(c2cccc(-c3cnn(C)c3)c2)C2=C(CC(C)(C)NC2=O)Nc2n[nH]c(C)c21 (centres unmarked) [Compound 945614] | IC50 [1, 3]: ≤ 100 nM; IC50 [1, 7]: 100 to 1000 nM; IC50 [2, 4]: 100 to 1000 nM; IC50 [2, 8]: 1000 to 5000 nM
12 |  |  | CC[C@@]1(c2cccc(-c3cnn(C)c3C)c2)C2=C(CC(C)(C)NC2=O)Nc2n[nH]cc21 [Compound 945617] | IC50 [1, 3]: 1000 to 5000 nM; IC50 [2, 4]: > 5000 nM
13 | 1000 to 5000 | > 5000 | CC[C@@]1(c2cccc(-c3ccnc4c3CCC4)c2)C2=C(CC(C)(C)CC2=O)Nc2n[nH]cc21 [Compound 945619] | 
14 | 100 to 1000 | 1000 to 5000 | CCC1(c2cccc(-c3cncn3C)c2)C2=C(CC(C)(C)CC2=O)Nc2n[nH]cc21 (centres unmarked) [Compound 945620] | 
15 |  |  | CC[C@@]1(c2cccc(C(F)(F)F)c2)C2=C(CCN(C(C)(C)C)C2=O)Nc2n[nH]cc21 [Compound 945633] | IC50 [1, 3]: > 5000 nM; IC50 [2, 4]: > 5000 nM
16 |  |  | CC[C@]1(c2cccc(C(F)(F)F)c2)C2=C(CCN(C(C)(C)C)C2=O)Nc2n[nH]cc21 [Compound 945634] | IC50 [1, 3]: 1000 to 5000 nM; IC50 [2, 4]: > 5000 nM
17 |  |  | CCC1(c2cccc(C(F)(F)F)c2)C2=C(CCN(c3cccnc3)C2=O)Nc2n[nH]cc21 (centres unmarked) [Compound 945637] | IC50 [1, 3]: ≤ 100 nM; IC50 [2, 4]: 100 to 1000 nM
18 | ≤ 100 | ≤ 100 | CC1(C)CC(=O)C2=C(C1)Nc1n[nH]cc1C21CCN(S(=O)(=O)c2ccccc2Cl)CC1 [Compound 945655] | 
19 | ≤ 100 | ≤ 100 | COc1cccc(S(=O)(=O)N2CCC3(CC2)C2=C(CC(C)(C)CC2=O)Nc2n[nH]cc23)c1F [Compound 945656] | IC50 [1, 9]: ≤ 100 nM; IC50 [2, 10]: 100 to 1000 nM
20 | ≤ 100 | 100 to 1000 | CC1(C)CC(=O)C2=C(C1)Nc1n[nH]cc1C21CCN(S(=O)(=O)c2ccccc2C(F)F)CC1 [Compound 945657] | IC50 [1, 9]: 100 to 1000 nM; IC50 [2, 10]: 1000 to 5000 nM
21 | 100 to 1000 | 1000 to 5000 | Cc1cnn(C)c1S(=O)(=O)N1CCC2(CC1)C1=C(CC(C)(C)CC1=O)Nc1n[nH]cc12 [Compound 945658] | 
22 | ≤ 100 | ≤ 100 | CN(C)C(=O)c1ccc(S(=O)(=O)N2CCC3(CC2)C2=C(CC(C)(C)CC2=O)Nc2n[nH]cc23)cc1 [Compound 945659] | 
23 | ≤ 100 | ≤ 100 | CC1(C)CC(=O)C2=C(C1)Nc1n[nH]cc1C21CCN(S(=O)(=O)c2ccc(Cl)c(Cl)c2)CC1 [Compound 945660] | 
24 | ≤ 100 | ≤ 100 | CC1(C)CC(=O)C2=C(C1)Nc1n[nH]cc1C21CCN(S(=O)(=O)c2ccc(Cl)cc2)CC1 [Compound 945661] | 

Row | IC50 [1, 5] [nM] | IC50 [2, 6] [nM] | Structure (SMILES) | also measured
25 | ≤ 100 | 100 to 1000 | COc1ccc(S(=O)(=O)N2CCC3(CC2)C2=C(CC(C)(C)CC2=O)Nc2n[nH]cc23)c(C)c1C [Compound 945662] | 
26 | ≤ 100 | ≤ 100 | CC(C)c1nc(S(=O)(=O)N2CCC3(CC2)C2=C(CC(C)(C)CC2=O)Nc2n[nH]cc23)cn1C [Compound 945663] | 
27 | ≤ 100 | ≤ 100 | CCn1nccc1S(=O)(=O)N1CCC2(CC1)C1=C(CC(C)(C)CC1=O)Nc1n[nH]cc12 [Compound 945664] | 
28 | ≤ 100 | ≤ 100 | COc1ccc(F)c(S(=O)(=O)N2CCC3(CC2)C2=C(CC(C)(C)CC2=O)Nc2n[nH]cc23)c1 [Compound 945665] | 
29 | ≤ 100 | ≤ 100 | COc1ccc(S(=O)(=O)N2CCC3(CC2)C2=C(CC(C)(C)CC2=O)Nc2n[nH]cc23)cn1 [Compound 945666] | 
30 | ≤ 100 | 100 to 1000 | CC1(C)CC(=O)C2=C(C1)Nc1n[nH]cc1C21CCN(S(=O)(=O)c2ccccc2C(F)(F)F)CC1 [Compound 945667] | 
31 |  |  | CC1(C)CC(=O)C2=C(C1)Nc1n[nH]cc1C21CCN(S(=O)(=O)c2ccccc2OC(F)F)CC1 [Compound 945668] | IC50 [1, 3]: ≤ 100 nM; IC50 [1, 9]: ≤ 100 nM; IC50 [2, 4]: ≤ 100 nM; IC50 [2, 10]: 100 to 1000 nM
32 | ≤ 100 | ≤ 100 | COc1cc(S(=O)(=O)N2CCC3(CC2)C2=C(CC(C)(C)CC2=O)Nc2n[nH]cc23)ccc1Cl [Compound 945669] | 
33 | ≤ 100 | ≤ 100 | CCOc1ccc(S(=O)(=O)N2CCC3(CC2)C2=C(CC(C)(C)CC2=O)Nc2n[nH]cc23)cc1 [Compound 945670] | IC50 [1, 9]: 100 to 1000 nM; IC50 [2, 10]: 1000 to 5000 nM
34 | ≤ 100 | ≤ 100 | CCn1ccc(S(=O)(=O)N2CCC3(CC2)C2=C(CC(C)(C)CC2=O)Nc2n[nH]cc23)n1 [Compound 945671] | 
35 | ≤ 100 | ≤ 100 | Cc1ccc(S(=O)(=O)N2CCC3(CC2)C2=C(CC(C)(C)CC2=O)Nc2n[nH]cc23)s1 [Compound 945672] | IC50 [1, 9]: 100 to 1000 nM; IC50 [2, 10]: 100 to 1000 nM
36 | ≤ 100 | ≤ 100 | CC(C)Oc1ccc(S(=O)(=O)N2CCC3(CC2)C2=C(CC(C)(C)CC2=O)Nc2n[nH]cc23)cc1 [Compound 945673] | 
37 | ≤ 100 | 100 to 1000 | Cc1cc(S(=O)(=O)N2CCC3(CC2)C2=C(CC(C)(C)CC2=O)Nc2n[nH]cc23)c(C)s1 [Compound 945674] | 
38 | ≤ 100 | ≤ 100 | CC(C)Oc1ccc(S(=O)(=O)N2CCC3(CC2)C2=C(CC(C)(C)CC2=O)Nc2n[nH]cc23)cn1 [Compound 945676] | 
39 | ≤ 100 | 100 to 1000 | CC1(C)CC(=O)C2=C(C1)Nc1n[nH]cc1C21CCN(S(=O)(=O)c2cnn(C(C)(C)C)c2)CC1 [Compound 945677] | 
40 | ≤ 100 | 100 to 1000 | Cc1cc(S(=O)(=O)N2CCC3(CC2)C2=C(CC(C)(C)CC2=O)Nc2n[nH]cc23)ccc1OC(C)C [Compound 945678] | 
41 | 100 to 1000 | 1000 to 5000 | CCn1nc(C)c(S(=O)(=O)N2CCC3(CC2)C2=C(CC(C)(C)CC2=O)Nc2n[nH]cc23)c1C [Compound 945679] | 
42 | ≤ 100 | ≤ 100 | COc1ccc(S(=O)(=O)N2CCC3(CC2)C2=C(CC(C)(C)CC2=O)Nc2n[nH]cc23)cc1C [Compound 945680] | 
43 | ≤ 100 | ≤ 100 | CCC1(c2cccc(-c3c(C)cncc3C)c2)C2=C(CC(C)(C)CC2=O)Nc2n[nH]cc21 (centres unmarked) [Compound 945703] | 
44 | ≤ 100 | ≤ 100 | CCC1(c2cccc(-c3c(F)cncc3OC)c2)C2=C(CC(C)(C)CC2=O)Nc2n[nH]cc21 (centres unmarked) [Compound 945704] | IC50 [1, 7]: ≤ 100 nM; IC50 [2, 8]: 100 to 1000 nM
45 | ≤ 100 | ≤ 100 | CCC1(c2cccc(C(F)F)c2)C2=C(CC(C)(C)CC2=O)Nc2n[nH]c(C(F)(F)F)c21 (centres unmarked) [Compound 945710] | IC50 [1, 7]: ≤ 100 nM; IC50 [2, 8]: ≤ 100 nM
46 |  |  | Cn1ccc(S(=O)(=O)N2CC[C@]3(C2)C2=C(CC(C)(C)CC2=O)Nc2n[nH]cc23)n1 [Compound 945712] | IC50 [1, 3]: ≤ 100 nM; IC50 [1, 9]: ≤ 100 nM; IC50 [2, 4]: ≤ 100 nM; IC50 [2, 10]: 100 to 1000 nM
47 | ≤ 100 | ≤ 100 | CCC1(c2cccc(S(=O)(=O)C3CC3)c2)C2=C(CC(C)(C)CC2=O)Nc2n[nH]c(C(F)(F)F)c21 (centres unmarked) [Compound 945713] | IC50 [1, 7]: ≤ 100 nM; IC50 [2, 8]: ≤ 100 nM
48 | ≤ 100 | ≤ 100 | Cn1ccc(S(=O)(=O)N2CC[C@@]3(C2)C2=C(CC(C)(C)CC2=O)Nc2n[nH]cc23)n1 [Compound 945714] | 
